From patent US8158621B2, “Methods of treating or preventing autoimmune diseases with 2,4-pyrimidinediamine compounds” (Rigel Pharmaceuticals, Inc., priority 2002, dated 2012)

How the values were obtained:
Jurkat cells = test: Jurkat (T-cell) toxicity, light scatter; format: cell-based, human; conditions: read-out: Toxicity Jurkat Light Scat.
Experimental: Dilute Jurkat cells to 2×10^5 cells/ml in complete RPMI (10% heat-inactivated fetal bovine serum) media and incubate at 37° C., 5% CO2 for 18 hours. Add 65 ul cells at 7.7×10^5 cells/ml to a 96-well V-bottom plate (TC-treated, Costar) containing 65 ul 2× compound (final vehicle concentration is 0.5% DMSO, 1.5% MeOH). Mix, incubate plates for 18-24 hr at 37° C., 5% CO2. Toxicity was assessed by flow cytometric analysis of cellular light scatter

[1] = test system: bone marrow derived mast cells (BMMC); test: BMMC high cell density IgE activation: hexosaminidase; format: cell-based, mouse
[2] = test system: Human Jurkat T-cells (clone N); test: Jurkat T-cell activation (anti-TCR, CD69 upregulation); format: cell-based
Procedure, shortened: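 Jurkat cells in RPMI + 5% FBS preincubated with compound 1 h at 37 °C, then stimulated with anti-TCR C305 at 500 ng/ml for 20 h. CD69 surface expression stained with anti-CD69-APC and read by flow cytometry; IC50 versus solvent-only control.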

[3] = test system: cultured human mast cells (CHMC); test: CHMC low cell density ionomycin activation: hexosaminidase assay; format: cell-based; conditions: hexosaminidase release, read-out: CHMC Ionomycin Hexos. IC50
Experimental: (§1) Inhibition of degranulation was measured at both low and high cell density by quantifying the release of the granule specific factors tryptase, histamine and hexosaminidase. Inhibition of release and/or synthesis of lipid mediators was assessed by measuring the release of leukotriene LTC4 and inhibition of release and/or synthesis of cytokines was monitored by quantifying TNF-α, IL-6 and IL-13. Tryptase and hexosaminidase were quantified using fluorogenic substrates as described in their respective examples. Histamine, TNFα, IL-6, IL-13 and LTC4 were quantified using the following commercial ELISA kits: histamine (Immunotech #2015, Beckman Coulter), TNFα (Biosource #KHC3011), IL-6 (Biosource #KMC0061), IL-13 (Biosource #KHC0132) and LTC4 (Cayman Chemical #520211). The protocols of the various assays are provided below.

B-cell line BJAB = test: BJAB (B-cell) toxicity, light scatter; format: cell-based; conditions: read-out: Toxicity BJAB Light Scat.
Experimental: The B-cell line BJAB was cultured in log phase in RPMI1640+10% heat-inactivated fetal bovine serum, 1× L-glutamine, 1× penicillin, 1× […] and 1× beta-mercaptoethanol at 37° C., 5% CO2. First, BJABs were harvested, spun and resuspended in culture medium to a concentration of 7.7×10^5 cells/mL. 65 uL cells were mixed with 65 uL compound, in duplicate and in the presence of 0.1% DMSO in a V-bottomed 96-well tissue culture plate. Cells were incubated with compound at various dilutions at 37° C., 5% CO2. Toxicity was assessed by flow cytometric analysis of cellular light scatter.

[4] = test system: basophil cells (human peripheral blood); test: Basophil ionomycin activation: histamine release assay; format: cell-based; conditions: basophils, ionomycin activation, histamine release; read-out: Basophils Ionomycin Histamine IC50
Experimental: (§2) The basophil activation assay was carried out using whole human peripheral blood from donors allergic to dust mites with the majority of the red blood cells removed by dextran sedimentation. Human peripheral blood was mixed 1:1 with 3% dextran T500 and RBCs were allowed to settle for 20-25min. The upper fraction was diluted with 3 volumes of D-PBS and cells were spun down for 10 min at 1500 rpm, RT. Supernatant was aspirated and cells were washed in an equal volume MT-buffer. Finally, cells were resuspended in MT-buffer containing 0.5% DMSO in the original blood volume. 80 uL cells were mixed with 20 uL compound in the presence of 0.5% DMSO, in triplicate, in a V-bottom 96-well tissue culture plate. A dose range of 8 compound concentrations was tested resulting in a 10-point dose response curve including maximum (stimulated) and minimum (unstimulated) response. […] The cells were stimulated for 30 minutes at 37° C., 5% CO2. The plate was spun for 10 min at 1500 rpm at room temperature and 80 uL the supernatant was harvested for histamine content analysis using the histamine ELISA kit supplied by Immunotech. The ELISA was performed according to supplier's instructions.
Assays for ionomycin-induced basophil cell degranulation were carried out as described for the Basophil IgE or Dustmite Activation Assay (Section 7.5.5, supra), with the exception that following incubation with compound, cells were stimulated with 20 μl of 2 μM ionomycin.

[5] = test system: basophil cells (human peripheral blood); test: Basophil anti-IgE activation: histamine release assay; format: cell-based; conditions: basophils, anti-IgE activation, histamine release; read-out: Basophils anti-IgE Histamine IC50
Experimental: as §2

[6] = test system: cultured human mast cells (CHMC); test: CHMC low cell density ionomycin activation: tryptase assay; format: cell-based
[7] = test system: bone marrow derived mast cells (BMMC); test: BMMC high cell density ionomycin activation: hexosaminidase; format: cell-based, mouse; conditions: read-out: BMMC Ionomycin Hexos.
Experimental: Add 50 uL of BMMC cell supernatant (see above) to the hexoseaminidase substrate, place at 37° C. for 30 minutes and read the plate at 5, 10, 15, and 30 minutes on a spectrophotometer.

[8] = test system: cultured human mast cells (CHMC); test: CHMC low cell density IgE activation: LTC4 assay; format: cell-based; conditions: anti-IgE activation, LTC4 release
Procedure, shortened: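 Cultured human mast cells at low density (1000-1500 per well) rested 1 h at 37° C, then stimulated with anti-IgE for 30 min at 37° C. Supernatant tryptase measured with fluorogenic substrate (30 min, room temperature); LTC4 quantified by ELISA on diluted supernatant.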

[9] = test system: cultured human mast cells (CHMC); test: CHMC low cell density IgE activation: hexosaminidase assay; format: cell-based; conditions: anti-IgE activation, hexosaminidase release, read-out: CHMC anti-IgE Hexos. IC50
Experimental: as §1

[10] = test system: bone marrow derived mast cells (BMMC); test: BMMC high cell density IgE activation: TNFalpha; format: cell-based, mouse; conditions: high cell density; read-out: BMMC anti-IgE TNF-alpha
Experimental: (§3) After sensitizing, cells are counted, pelleted (1000 rpm, 5-10 minutes), and resuspended at 1-3×10^6 cells/ml in MT buffer. Add 100 ul of cell suspension to each well and 100 ul of compound dilutions. The final vehicle concentration is 0.5% DMSO. Incubate at 37° C. (5% CO2) for 1 hour. After 1 hour of compound treatment, stimulate cells with 6× stimulus (60 ng/ml DNP-BSA). Mix wells with the cells and allow plates to incubate at 37° C. (5% CO2) for one hour. After 1 hour incubation, pellet cells (10 minutes, 1000 RPM) and collect 200 ul per well of the supernatant, being careful not to disturb pellet, and transfer to a clean tube or 96-well plate. Place the supernatant plate on ice. During the 4-5 hour step (see next) perform the hexosiminidase assay. Resuspend cell pellet in 240 ul WEI-conditioned media containing 0.5% DMSO and corresponding concentration of compound. Incubate BMMC cells for 4-5 hours at 37° C. (5% CO2). After incubation, pellet cells (1000 RPM, 10 minutes) and collect 225 ul per well and place in −80° C. until ready to perform ELISAS. ELISAS are performed on appropriately diluted samples (determined empirically for each donor cell population so that the sample measurement falls within the standard curve) following the supplier's instructions.

Primary T-cells [11] = test: Primary T-cell cytokine production (αCD3/αCD28): IL-2; format: cell-based, human; conditions: read-out: 1° T-Cell IL2 IC50
Experimental: (§4) 2E8-4E8 PBMC or proliferating T cells grown in rIL-2 from healthy human donors were suspended in PBS were spun down (1500 rpm, 8-10 minutes) and resuspended in 100 ml RPMI Complete media (1% Pen-Strep, 1% L-Glutamine, 10 mM HEPES). The cells were plated in T175 flasks (37° C., 5% CO2) and monocytes were allowed to adhere for 2-3 hours. After monocyte attachment, non-adherent cells were harvested, counted by hemocytometer, washed several times with PBS then resuspended in Yssels Complete Media (Modified IMDM Media with 1% Human AB Serum, 1% Pen-Strep, 1% L-Glutamine, 10 mM HEPES) at […]. 90 uL of the cell dilution were then added to compounds diluted to 2× in Yssel's media and incubated for 30 minutes at 37° C. (5% CO2). After this preincubation step the compound/cell mixture was transferred to stimulation plates, as described below.
(§5) Stimulation plates were prepared by coating 96 well plates with 5 μg/ml αCD3 (BD PharMingen, Catalog #555336)+10 μg/ml αCD28 (Beckman Coulter, Catalog #IM1376) in PBS (no Ca^2+/Mg^2+) at 37° C. (5% CO2) for at 3-5 hours. After incubation with the stimulation antibodies, the cocktail was removed and the plates washed 3 times with PBS prior to addition of the primary T cell/compound mixture.
(§6) The compound/cell mixture was transferred to the stimulation plates and incubated for 18 hr at 37° C. (5% CO2). After the cell stimulation, ˜150 μl supernatant were transferred from each well into 96-well filter plates (Coming PVDF Filter Plates) spun down (2000 rpm, 2-3 minutes) and either used immediately for ELISA or LUMINEX measurements or frozen down at −80° C. for future use.
IL-2 ELISAs were performed using the Quantikine Human IL-2 ELISA kit (R&D Systems, Catalog # D2050) as described by the manufacturer and absorption was measured on a spectrophotometer at 450 nm wavelength. Blank values were substracted and absorbances were converted to pg/mL based on the standard curve.
(§7) Luminex immunoassay multiplexing for TNF, IL-2, GMSCF, IL-4 and IFNg was performed essentially as described by the manufacturer (Upstate Biotechnology). Essentially 50 uL of sample was diluted into 50 uL assay diluent and 50 uL incubation buffer, then incubated with 100 uL of the diluted detection antibody for 1 hr at RT in the dark. The filter plate was washed 2× in Wash Buffer, then incubated with 100 uL of the diluted secondary reagent (SAV-RPE) for 30 min at RT in the dark. Finally the plates were washed 3 times and bead identification and RPE fluorescent measured by the Luminex instrument.
(§8) Varied concentrations of compound were compared to solvent only to determine the inhibition of T-cell activation IC50 of each compound.

Primary T-cells [12] = test: Primary T-cell cytokine production (αCD3/αCD28): TNF; format: cell-based, human; conditions: read-out: 1° T-Cell TNF IC50
Experimental: as §4
(5% CO2) for at 3-5 hours. After incubation with the stimulation antibodies, the cocktail was removed and the plates washed 3 times with PBS prior to addition of the primary T cell/compound mixture.
as §6, §7, §8

Primary T-cells [13] = test: Primary T-cell cytokine production (αCD3/αCD28): IFNg; format: cell-based, human; conditions: read-out: 1° T-Cell IFNg IC50
Experimental: as §4, §5, §6, §7, §8

Primary T-cells [14] = test: Primary T-cell cytokine production (αCD3/αCD28): IL-4; format: cell-based, human; conditions: read-out: 1° T-Cell IL4 IC50
Experimental: as §4, §5, §6, §7, §8

[15] = test system: bone marrow derived mast cells (BMMC); test: BMMC high cell density IgE activation: IL-6; format: cell-based, mouse; conditions: high cell density; read-out: BMMC anti-IgE IL-6
Experimental: as §3

Primary T-cells [16] = test: Primary T-cell cytokine production (αCD3/αCD28): GMSCF; format: cell-based, human; conditions: read-out: 1° T-Cell GMSCF IC50
Experimental: as §4, §5, §6, §7, §8

Syk kinase = target: T1, Syk kinase (Homo sapiens, UniProt P43405); test: Syk kinase biochemical fluorescence polarization assay; conditions: isolated Syk kinase, fluorescence polarization, 4 uM ATP
T1 construct: purchased Upstate, Lake Placid NY

[17] = test system: cultured human mast cells (CHMC); test: CHMC low cell density IgE activation: tryptase assay; format: cell-based; conditions: low cell density; read-out: CHMC anti-IgE Tryptase
Procedure, shortened: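 Cultured human mast cells (1000-1500 cells/well, donor-dependent) equilibrated 1 hr at 37° C, then stimulated with anti-IgE for 30 min at 37° C. Tryptase released into the supernatant is measured with a fluorogenic tryptase substrate after 30 min at room temperature.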

[18] = High Density, read-out: BMMC anti-IgE hexos

| SMILES | IC50 (Jurkat cells) [nM] | IC50 [1, 18] [nM] | IC50 [2] [nM] | IC50 [3] [nM] | IC50 (B-cell line BJAB) [nM] | IC50 [4] [nM] | IC50 [5] [nM] | IC50 [7] [nM] | IC50 [8] [nM] | IC50 [9] [nM] | further results |
| --- | --- | --- | --- | --- | --- | --- | --- | --- | --- | --- | --- |
| Oc1cccc(Nc2ncc(F)c(Nc3ccc4c(c3)OCCO4)n2)c1 [Compound R926210] | > 10000 | 600 | 4380 | > 10000 | > 10000 | > 10000 | 370 | > 10000 | 800 | – | IC50 ([6]; Low Density CHMC, ionomycin activation, tryptase release, read-out: CHMC Ionomycin Tryptase IC50): > 10000 nM |
| CCOc1ccc(Nc2nc(Nc3cccc(O)c3)ncc2F)cc1 [Compound R926146] | > 10000 | 1350 | > 10000 | 6700 | > 10000 | – | – | 5000 | 1590 | 761 | – |
| CCOc1ccc(Nc2nc(Nc3ccc(OC)c(OC)c3)ncc2F)cc1 [Compound R926108] | > 10000 | 900 | 10400 | 6400 | > 10000 | > 10000 | 950 | > 10000 | 760 | 787 | – |
| CNC(=O)COc1cccc(Nc2ncc(F)c(Nc3ccc4c(c3)NC(=O)[C@H](C)O4)n2)c1 [Compound R909317] | – | – | 224 | – | – | – | – | – | – | – | IC50 [10]: 7 nM; IC50 ([1]; high cell density, read-out: BMMC anti-IgE Hexos.): 2 nM; IC50 (Primary T-cells [11]): 1320 nM; IC50 (Primary T-cells [12]): 595 nM; IC50 (Primary T-cells [13]): 1570 nM; IC50 (Primary T-cells [14]): 876 nM; IC50 [15]: 6 nM; IC50 ([6]; low cell density, read-out: CHMC Ionomycin Tryptase): > 10000 nM; IC50 (Primary T-cells [16]): 1740 nM; IC50 (Syk kinase): 8 nM; IC50 [17]: 28.7 nM |
